{"source": "the supplement of paper PMC4862054"}
{"test_system": "Hs578T", "experiment": "normalised viability (% of control), CellTiter-Blue; higher = more viable cells (about 100 = DMSO control)", "conditions": "1 nM; incubation time: 72 h", "procedure,_shortened": "(§1)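 384-well plates were pre-loaded with compound in 5 µl medium before 20 µl of breast cancer cell suspension was seeded. Following 72 h incubation, 2.5 µl CellTiter-Blue reagent was added for 2 h at 37 °C. Fluorescence was read at 560/590 nm and plates were normalised to vehicle (100) and a positive kill control (0), checked by Z'-factor. Normalised viability is reported at a single listed concentration of the series.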", "units": {"normalised viability": "%"}}
{"smiles": "COc1ncc(-c2ccc3nccc(-c4ccnnc4)c3c2)cc1NS(=O)(=O)c1ccc(F)cc1F", "normalised viability": 107}
{"smiles": "Cn1c(=O)c(F)c(Nc2ccc(I)cc2F)c2c(=O)n(C[C@@H](O)CO)cnc21", "note": "[TAK-733]", "normalised viability": 108}
{"smiles": "CCS(=O)(=O)c1cccc(-c2cc(C(=O)NC3CCN(C)CC3)c(C)c3[nH]c4ncc(C)cc4c23)c1", "note": "[TAK-901]", "normalised viability": 124}
{"smiles": "COc1cccc2c1C(=O)c1c(O)c3c(c(O)c1C2=O)C[C@@](O)(C(C)=O)C[C@@H]3O[C@H]1C[C@H](N)[C@H](O)[C@H](C)O1", "note": "[Daunorubicin]", "normalised viability": 111}
{"test_system": "Hs578T", "experiment": "normalised viability (% of control), CellTiter-Blue; higher = more viable cells (about 100 = DMSO control)", "conditions": "10 nM; incubation time: 72 h", "procedure,_shortened": "as §1", "units": {"normalised viability": "%"}}
{"smiles": "COC1=CC(c2cc3ccccc3[nH]2)=N/C1=C\\c1[nH]c(C)cc1C", "note": "[Obatoclax]", "normalised viability": 96.7}
{"smiles": "O=c1[nH]cc(F)c(=O)[nH]1", "note": "[Fluorouracil]", "normalised viability": 111}
{"smiles": "CN1CCN(c2ccc3nc(-c4c(N)c5c(F)cccc5[nH]c4=O)[nH]c3c2)CC1", "note": "[Dovitinib]", "normalised viability": 106}
{"test_system": "Hs578T", "experiment": "normalised viability (% of control), CellTiter-Blue; higher = more viable cells (about 100 = DMSO control)", "conditions": "100 nM; incubation time: 72 h", "procedure,_shortened": "as §1", "units": {"normalised viability": "%"}}
{"smiles": "COc1ncc(-c2ccc3nccc(-c4ccnnc4)c3c2)cc1NS(=O)(=O)c1ccc(F)cc1F", "normalised viability": 33.5}
{"smiles": "Cn1c(=O)c(F)c(Nc2ccc(I)cc2F)c2c(=O)n(C[C@@H](O)CO)cnc21", "note": "[TAK-733]", "normalised viability": 88.3}
{"smiles": "CCS(=O)(=O)c1cccc(-c2cc(C(=O)NC3CCN(C)CC3)c(C)c3[nH]c4ncc(C)cc4c23)c1", "note": "[TAK-901]", "normalised viability": 78}
{"smiles": "CS(=O)(=O)OCCCCOS(C)(=O)=O", "note": "[Busulfan]", "normalised viability": 103}
{"smiles": "COc1cccc2c1C(=O)c1c(O)c3c(c(O)c1C2=O)C[C@@](O)(C(C)=O)C[C@@H]3O[C@H]1C[C@H](N)[C@H](O)[C@H](C)O1", "note": "[Daunorubicin]", "normalised viability": 64.1}
{"test_system": "Hs578T", "experiment": "normalised viability (% of control), CellTiter-Blue; higher = more viable cells (about 100 = DMSO control)", "conditions": "1000 nM; incubation time: 72 h", "procedure,_shortened": "as §1", "units": {"normalised viability": "%"}}
{"smiles": "COc1ncc(-c2ccc3nccc(-c4ccnnc4)c3c2)cc1NS(=O)(=O)c1ccc(F)cc1F", "normalised viability": 9.34}
{"smiles": "Cn1c(=O)c(F)c(Nc2ccc(I)cc2F)c2c(=O)n(C[C@@H](O)CO)cnc21", "note": "[TAK-733]", "normalised viability": 77.5}
{"smiles": "CCS(=O)(=O)c1cccc(-c2cc(C(=O)NC3CCN(C)CC3)c(C)c3[nH]c4ncc(C)cc4c23)c1", "note": "[TAK-901]", "normalised viability": 40.5}
{"smiles": "COC1=CC(c2cc3ccccc3[nH]2)=N/C1=C\\c1[nH]c(C)cc1C", "note": "[Obatoclax]", "normalised viability": 27.1}
{"smiles": "COc1cccc2c1C(=O)c1c(O)c3c(c(O)c1C2=O)C[C@@](O)(C(C)=O)C[C@@H]3O[C@H]1C[C@H](N)[C@H](O)[C@H](C)O1", "note": "[Daunorubicin]", "normalised viability": 6.42}
{"smiles": "O=c1[nH]cc(F)c(=O)[nH]1", "note": "[Fluorouracil]", "normalised viability": 106}
{"smiles": "CN1CCN(c2ccc3nc(-c4c(N)c5c(F)cccc5[nH]c4=O)[nH]c3c2)CC1", "note": "[Dovitinib]", "normalised viability": 99.3}
{"test_system": "Hs578T", "experiment": "normalised viability (% of control), CellTiter-Blue; higher = more viable cells (about 100 = DMSO control)", "conditions": "10000 nM; incubation time: 72 h", "procedure,_shortened": "as §1", "units": {"normalised viability": "%"}}
{"smiles": "COC1=CC(c2cc3ccccc3[nH]2)=N/C1=C\\c1[nH]c(C)cc1C", "note": "[Obatoclax]", "normalised viability": 22.1}
{"smiles": "CS(=O)(=O)OCCCCOS(C)(=O)=O", "note": "[Busulfan]", "normalised viability": 101}
{"smiles": "O=c1[nH]cc(F)c(=O)[nH]1", "note": "[Fluorouracil]", "normalised viability": 55.6}
{"smiles": "CN1CCN(c2ccc3nc(-c4c(N)c5c(F)cccc5[nH]c4=O)[nH]c3c2)CC1", "note": "[Dovitinib]", "normalised viability": 96}
{"test_system": "Hs578T", "experiment": "normalised viability (% of control), CellTiter-Blue; higher = more viable cells (about 100 = DMSO control)", "conditions": "100000 nM; incubation time: 72 h", "procedure,_shortened": "as §1", "units": {"normalised viability": "%"}}
{"smiles": "CS(=O)(=O)OCCCCOS(C)(=O)=O", "note": "[Busulfan]", "normalised viability": 85.7}
{"test_system": "CAL-148", "experiment": "normalised viability (% of control), CellTiter-Blue; higher = more viable cells (about 100 = DMSO control)", "conditions": "0.3 nM; incubation time: 72 h", "procedure,_shortened": "as §1", "units": {"normalised viability": "%"}}
{"smiles": "COc1ncc(-c2ccc3nccc(-c4ccnnc4)c3c2)cc1NS(=O)(=O)c1ccc(F)cc1F", "normalised viability": 88.2}
{"smiles": "Cn1c(=O)c(F)c(Nc2ccc(I)cc2F)c2c(=O)n(C[C@@H](O)CO)cnc21", "note": "[TAK-733]", "normalised viability": 95}
{"smiles": "CCS(=O)(=O)c1cccc(-c2cc(C(=O)NC3CCN(C)CC3)c(C)c3[nH]c4ncc(C)cc4c23)c1", "note": "[TAK-901]", "normalised viability": 90.1}
{"smiles": "COc1cccc2c1C(=O)c1c(O)c3c(c(O)c1C2=O)C[C@@](O)(C(C)=O)C[C@@H]3O[C@H]1C[C@H](N)[C@H](O)[C@H](C)O1", "note": "[Daunorubicin]", "normalised viability": 88.5}
{"test_system": "CAL-148", "experiment": "normalised viability (% of control), CellTiter-Blue; higher = more viable cells (about 100 = DMSO control)", "conditions": "3 nM; incubation time: 72 h", "procedure,_shortened": "as §1", "units": {"normalised viability": "%"}}
{"smiles": "COc1ncc(-c2ccc3nccc(-c4ccnnc4)c3c2)cc1NS(=O)(=O)c1ccc(F)cc1F", "normalised viability": 96.4}
{"smiles": "Cn1c(=O)c(F)c(Nc2ccc(I)cc2F)c2c(=O)n(C[C@@H](O)CO)cnc21", "note": "[TAK-733]", "normalised viability": 99.5}
{"smiles": "CCS(=O)(=O)c1cccc(-c2cc(C(=O)NC3CCN(C)CC3)c(C)c3[nH]c4ncc(C)cc4c23)c1", "note": "[TAK-901]", "normalised viability": 95.3}
{"smiles": "COC1=CC(c2cc3ccccc3[nH]2)=N/C1=C\\c1[nH]c(C)cc1C", "note": "[Obatoclax]", "normalised viability": 84.7}
{"smiles": "COc1cccc2c1C(=O)c1c(O)c3c(c(O)c1C2=O)C[C@@](O)(C(C)=O)C[C@@H]3O[C@H]1C[C@H](N)[C@H](O)[C@H](C)O1", "note": "[Daunorubicin]", "normalised viability": 106}
{"smiles": "O=c1[nH]cc(F)c(=O)[nH]1", "note": "[Fluorouracil]", "normalised viability": 111}
{"smiles": "CN1CCN(c2ccc3nc(-c4c(N)c5c(F)cccc5[nH]c4=O)[nH]c3c2)CC1", "note": "[Dovitinib]", "normalised viability": 91.6}
{"test_system": "CAL-148", "experiment": "normalised viability (% of control), CellTiter-Blue; higher = more viable cells (about 100 = DMSO control)", "conditions": "10 nM; incubation time: 72 h", "procedure,_shortened": "as §1", "units": {"normalised viability": "%"}}
{"smiles": "COc1ncc(-c2ccc3nccc(-c4ccnnc4)c3c2)cc1NS(=O)(=O)c1ccc(F)cc1F", "normalised viability": 85.4}
{"smiles": "Cn1c(=O)c(F)c(Nc2ccc(I)cc2F)c2c(=O)n(C[C@@H](O)CO)cnc21", "note": "[TAK-733]", "normalised viability": 99.5}
{"smiles": "CCS(=O)(=O)c1cccc(-c2cc(C(=O)NC3CCN(C)CC3)c(C)c3[nH]c4ncc(C)cc4c23)c1", "note": "[TAK-901]", "normalised viability": 101}
{"smiles": "COc1cccc2c1C(=O)c1c(O)c3c(c(O)c1C2=O)C[C@@](O)(C(C)=O)C[C@@H]3O[C@H]1C[C@H](N)[C@H](O)[C@H](C)O1", "note": "[Daunorubicin]", "normalised viability": 77.6}
{"test_system": "CAL-148", "experiment": "normalised viability (% of control), CellTiter-Blue; higher = more viable cells (about 100 = DMSO control)", "conditions": "30 nM; incubation time: 72 h", "procedure,_shortened": "as §1", "units": {"normalised viability": "%"}}
{"smiles": "COC1=CC(c2cc3ccccc3[nH]2)=N/C1=C\\c1[nH]c(C)cc1C", "note": "[Obatoclax]", "normalised viability": 87.9}
{"smiles": "CS(=O)(=O)OCCCCOS(C)(=O)=O", "note": "[Busulfan]", "normalised viability": 124}
{"smiles": "O=c1[nH]cc(F)c(=O)[nH]1", "note": "[Fluorouracil]", "normalised viability": 109}
{"smiles": "CN1CCN(c2ccc3nc(-c4c(N)c5c(F)cccc5[nH]c4=O)[nH]c3c2)CC1", "note": "[Dovitinib]", "normalised viability": 95.5}
{"test_system": "CAL-148", "experiment": "normalised viability (% of control), CellTiter-Blue; higher = more viable cells (about 100 = DMSO control)", "conditions": "100 nM; incubation time: 72 h", "procedure,_shortened": "as §1", "units": {"normalised viability": "%"}}
{"smiles": "COC1=CC(c2cc3ccccc3[nH]2)=N/C1=C\\c1[nH]c(C)cc1C", "note": "[Obatoclax]", "normalised viability": 87.2}
{"smiles": "O=c1[nH]cc(F)c(=O)[nH]1", "note": "[Fluorouracil]", "normalised viability": 103}
{"smiles": "CN1CCN(c2ccc3nc(-c4c(N)c5c(F)cccc5[nH]c4=O)[nH]c3c2)CC1", "note": "[Dovitinib]", "normalised viability": 89.6}
{"test_system": "CAL-148", "experiment": "normalised viability (% of control), CellTiter-Blue; higher = more viable cells (about 100 = DMSO control)", "conditions": "300 nM; incubation time: 72 h", "procedure,_shortened": "as §1", "units": {"normalised viability": "%"}}
{"smiles": "CS(=O)(=O)OCCCCOS(C)(=O)=O", "note": "[Busulfan]", "normalised viability": 111}
{"test_system": "CAL-148", "experiment": "normalised viability (% of control), CellTiter-Blue; higher = more viable cells (about 100 = DMSO control)", "conditions": "1000 nM; incubation time: 72 h", "procedure,_shortened": "as §1", "units": {"normalised viability": "%"}}
{"smiles": "CS(=O)(=O)OCCCCOS(C)(=O)=O", "note": "[Busulfan]", "normalised viability": 115}
{"test_system": "SK-BR-3", "experiment": "normalised viability (% of control), CellTiter-Blue; higher = more viable cells (about 100 = DMSO control)", "conditions": "1 nM; incubation time: 72 h", "procedure,_shortened": "as §1", "units": {"normalised viability": "%"}}
{"smiles": "COc1ncc(-c2ccc3nccc(-c4ccnnc4)c3c2)cc1NS(=O)(=O)c1ccc(F)cc1F", "normalised viability": 77.7}
{"smiles": "Cn1c(=O)c(F)c(Nc2ccc(I)cc2F)c2c(=O)n(C[C@@H](O)CO)cnc21", "note": "[TAK-733]", "normalised viability": 106}
{"smiles": "CCS(=O)(=O)c1cccc(-c2cc(C(=O)NC3CCN(C)CC3)c(C)c3[nH]c4ncc(C)cc4c23)c1", "note": "[TAK-901]", "normalised viability": 98.9}
{"smiles": "COc1cccc2c1C(=O)c1c(O)c3c(c(O)c1C2=O)C[C@@](O)(C(C)=O)C[C@@H]3O[C@H]1C[C@H](N)[C@H](O)[C@H](C)O1", "note": "[Daunorubicin]", "normalised viability": 103}
{"test_system": "SK-BR-3", "experiment": "normalised viability (% of control), CellTiter-Blue; higher = more viable cells (about 100 = DMSO control)", "conditions": "10 nM; incubation time: 72 h", "procedure,_shortened": "as §1", "units": {"normalised viability": "%"}}
{"smiles": "COC1=CC(c2cc3ccccc3[nH]2)=N/C1=C\\c1[nH]c(C)cc1C", "note": "[Obatoclax]", "normalised viability": 80.2}
{"smiles": "O=c1[nH]cc(F)c(=O)[nH]1", "note": "[Fluorouracil]", "normalised viability": 108}
{"smiles": "CN1CCN(c2ccc3nc(-c4c(N)c5c(F)cccc5[nH]c4=O)[nH]c3c2)CC1", "note": "[Dovitinib]", "normalised viability": 84.8}
{"test_system": "SK-BR-3", "experiment": "normalised viability (% of control), CellTiter-Blue; higher = more viable cells (about 100 = DMSO control)", "conditions": "100 nM; incubation time: 72 h", "procedure,_shortened": "as §1", "units": {"normalised viability": "%"}}
{"smiles": "COc1ncc(-c2ccc3nccc(-c4ccnnc4)c3c2)cc1NS(=O)(=O)c1ccc(F)cc1F", "normalised viability": 14.2}
